Reference: patent US9884832B2 (priority 2011, dated 2018)

biological target: AM2 S31 (wild-type serine at position 31 in the M2 protein), influenza virus A/Udorn/72 (Influenza A virus, UniProt P0DOF5); assay: cell-based; conditions: 100 uM; Xenopus oocytes; activity range class; read-out: S31 OOcyte Inhibition at 100 uM (%)
Sequence (P0DOF5 whole entry, looked up): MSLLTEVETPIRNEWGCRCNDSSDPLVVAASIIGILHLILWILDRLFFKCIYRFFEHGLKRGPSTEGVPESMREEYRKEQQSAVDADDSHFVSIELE

**Q.** Which inhibition at 100 µM does the source give for `c1cc(-c2ccc(CNC34CC5CC(CC(C5)C3)C4)cn2)cs1` [Example 59a, N-((6-(thiophen-3-yl)pyridin-3-yl)methyl)adamantan-1-amine] here?
**A.** 0 to 30%

**Q.** For `c1coc(-c2ccc(CNC34CC5CC(CC(C5)C3)C4)cn2)c1` [Example 60a, N-((6-(furan-2-yl)pyridin-3-yl)methyl)adamantan-1-amine], which inhibition at 100 µM is on record?
**A.** 0 to 30%

**Q.** With `c1csc(-c2ncc(CNC34CC5CC(CC(C5)C3)C4)cn2)c1` [Example 61a, N-((2-(thiophen-2-yl)pyrimidin-5-yl)methyl)adamantan-1-amine] as the molecule, how does the inhibition at 100 µM read?
**A.** 0 to 30%

**Q.** `c1coc(-c2ncc(CNC34CC5CC(CC(C5)C3)C4)cn2)c1` [Example 62a, N-((2-(furan-2-yl)pyrimidin-5-yl)methyl)adamantan-1-amine] was tested. Which inhibition at 100 µM did it give?
**A.** 0 to 30%

**Q.** With `c1ccc(-c2ncc(CNC34CC5CC(CC(C5)C3)C4)cn2)cc1` [Example 63a, N-((2-phenylpyrimidin-5-yl)methyl)adamantan-1-amine] as the molecule, how does the inhibition at 100 µM read?
**A.** 0 to 30%

**Q.** For `c1ccc(-c2ncc(CNC34CC5CC(CC(C5)C3)C4)cn2)nc1` [Example 64a, N-((2-(pyridin-2-yl)pyrimidin-5-yl)methyl)adamantan-1-amine], which inhibition at 100 µM is on record?
**A.** 0 to 30%

**Q.** Which inhibition at 100 µM does the source give for `Oc1cccc2ccc(CNC34CC5CC(CC(C5)C3)C4)nc12` [Example 65a, 2-((adamantan-1-ylamino)methyl)quinolin-8-ol] here?
**A.** 31 to 95%

**Q.** Which inhibition at 100 µM does the source give for `c1cc(CNC23CC4CC(CC(C4)C2)C3)co1` [Example 66a, Adamantan-1-yl-furan-3-ylmethyl-amine] here?
**A.** 31 to 95%

**Q.** Which inhibition at 100 µM does the source give for `Cc1ccc(CNC23CC4CC(CC(C4)C2)C3)o1` [Example 67a] here?
**A.** 31 to 95%

**Q.** `c1cc(CNC23CC4CC(CC(C4)C2)C3)cs1` [Example 68a, Adamantan-1-yl-thiophen-3-ylmethyl-amine] was tested. Which inhibition at 100 µM did it give?
**A.** 31 to 95%

**Q.** Which inhibition at 100 µM does the source give for `c1coc(CNC23CC4CC(CC(C4)C2)C3)c1` [Example 69a, Adamantan-1-yl-furan-2-ylmethyl-amine] here?
**A.** 31 to 95%

**Q.** How did the inhibition at 100 µM turn out when `c1csc(CNC23CC4CC(CC(C4)C2)C3)c1` [Example 70a, Adamantan-1-yl-thiophen-2-ylmethyl-amine] was run?
**A.** 31 to 95%

**Q.** How did the inhibition at 100 µM turn out when `c1csc(CNC23CC4CC(CC(C4)C2)C3)n1` [Example 71a, Adamantan-1-yl-thiazol-2-ylmethyl-amine] was run?
**A.** 31 to 95%

**Q.** `c1c[nH]c(CNC23CC4CC(CC(C4)C2)C3)c1` [Example 72a, Adamantan-1-yl-(1H-pyrrol-2-ylmethyl)-amine] was tested. Which inhibition at 100 µM did it give?
**A.** 31 to 95%

**Q.** How did the inhibition at 100 µM turn out when `c1nc(CNC23CC4CC(CC(C4)C2)C3)no1` [Example 73a, Adamantan-1-yl-[1,2,4]oxadiazol-3-ylmethyl-amine] was run?
**A.** 31 to 95%

**Q.** How did the inhibition at 100 µM turn out when `COc1ccsc1CNC12CC3CC(CC(C3)C1)C2` [Example 74a, Adamantan-1-yl-(3-methoxy-thiophen-2-ylmethyl)-amine] was run?
**A.** 31 to 95%

**Q.** For `COc1ccc(CNC23CC4CC(CC(C4)C2)C3)s1` [Example 75a, N-((5-methoxythiophen-2-yl)methyl)adamantan-1-amine], which inhibition at 100 µM is on record?
**A.** 31 to 95%

**Q.** Which inhibition at 100 µM does the source give for `Cc1ccsc1CNC12CC3CC(CC(C3)C1)C2` [Example 76a, N-((3-methylthiophen-2-yl)methyl)adamantan-1-amine] here?
**A.** 31 to 95%

**Q.** With `Cc1cc(CNC23CC4CC(CC(C4)C2)C3)sc1Br` [Example 77a, N-((5-bromo-4-methylthiophen-2-yl)methyl)adamantan-1-amine] as the molecule, how does the inhibition at 100 µM read?
**A.** 31 to 95%

same assay, conditions: Table 1; 100 uM; Xenopus oocytes, pH 5.5, -20 mV; read-out: S31 OOcyte Inhibition at 100 uM (%)

**Q.** With `COc1ccc(CNC23CC4CC(CC(C4)C2)C3)c(OC)c1` [Example 59, Adamantan-1-yl-(2,4-dimethoxy-benzyl)-amine] as the molecule, how does the inhibition at 100 µM read?
**A.** 0 to 30%

**Q.** Which inhibition at 100 µM does the source give for `CC(=O)Oc1ccc(CNC23CC4CC(CC(C4)C2)C3)c(O)c1` [Example 60, Acetic acid 4-(adamantan-1-ylaminomethyl)-3-hydroxy-phenyl ester] here?
**A.** 31 to 95%

**Q.** With `COc1ccc(CNC23CC4CC(CC(C4)C2)C3)cc1O` [Example 61, 5-(Adamantan-1-ylaminomethyl)-2-methoxy-phenol] as the molecule, how does the inhibition at 100 µM read?
**A.** 31 to 95%

**Q.** For `Fc1ccc(C(F)(F)F)cc1CNC12CC3CC(CC(C3)C1)C2` [Example 62, Adamantan-1-yl-(2-fluoro-5-trifluoromethyl-benzyl)-amine], which inhibition at 100 µM is on record?
**A.** 0 to 30%

**Q.** `COc1ccc(F)c(CNC23CC4CC(CC(C4)C2)C3)c1` [Example 63, Adamantan-1-yl-(2-fluoro-5-methoxy-benzyl)-amine] was tested. Which inhibition at 100 µM did it give?
**A.** 31 to 95%

**Q.** For `Oc1cccc(CNC23CC4CC(CC(C4)C2)C3)c1O` [Example 64, 3-(Adamantan-1-ylaminomethyl)-benzene-1,2-diol], which inhibition at 100 µM is on record?
**A.** 31 to 95%

**Q.** Which inhibition at 100 µM does the source give for `Oc1ccc(CNC23CC4CC(CC(C4)C2)C3)c(O)c1O` [Example 65, 4-(Adamantan-1-ylaminomethyl)-benzene-1,2,3-triol] here?
**A.** 0 to 30%

**Q.** `COc1cc(O)cc(OC)c1CNC12CC3CC(CC(C3)C1)C2` [Example 66, 4-(Adamantan-1-ylaminomethyl)-3,5-dimethoxy-phenol] was tested. Which inhibition at 100 µM did it give?
**A.** 31 to 95%

**Q.** How did the inhibition at 100 µM turn out when `COc1cc(F)c(CNC23CC4CC(CC(C4)C2)C3)c(F)c1` [Example 67, Adamantan-1-yl-(2,6-difluoro-4-methoxy-benzyl)-amine] was run?
**A.** 31 to 95%

**Q.** With `Oc1c(F)cc(CNC23CC4CC(CC(C4)C2)C3)cc1Cl` [Example 68, 4-(Adamantan-1-ylaminomethyl)-2-chloro-6-fluoro-phenol] as the molecule, how does the inhibition at 100 µM read?
**A.** 31 to 95%

**Q.** With `Oc1cc(F)c(CNC23CC4CC(CC(C4)C2)C3)c(F)c1` [Example 69, 4-(Adamantan-1-ylaminomethyl)-3,5-difluoro-phenol] as the molecule, how does the inhibition at 100 µM read?
**A.** 31 to 95%

**Q.** With `Oc1cc(O)c(CNC23CC4CC(CC(C4)C2)C3)c(O)c1` [Example 70, 2-(Adamantan-1-ylaminomethyl)-benzene-1,3,5-triol] as the molecule, how does the inhibition at 100 µM read?
**A.** 0 to 30%

**Q.** How did the inhibition at 100 µM turn out when `Oc1c(F)c(F)c(CNC23CC4CC(CC(C4)C2)C3)c(F)c1F` [Example 71, 4-(Adamantan-1-ylaminomethyl)-2,3,5,6-tetrafluoro-phenol] was run?
**A.** 0 to 30%

**Q.** Which inhibition at 100 µM does the source give for `c1ccc(CNC23CC4CC(CC(C4)C2)C3)nc1` [Example 72, Adamantan-1-yl-pyridin-2-ylmethyl-amine] here?
**A.** 0 to 30%

**Q.** How did the inhibition at 100 µM turn out when `c1cc(CNC23CC4CC(CC(C4)C2)C3)ccn1` [Example 73, Adamantan-1-yl-pyridin-4-ylmethyl-amine] was run?
**A.** 31 to 95%

**Q.** How did the inhibition at 100 µM turn out when `[O-][n+]1ccc(CNC23CC4CC(CC(C4)C2)C3)cc1` [Example 74, Adamantan-1-yl-(1-oxy-pyridin-4-ylmethyl)-amine] was run?
**A.** 0 to 30%

**Q.** How did the inhibition at 100 µM turn out when `Nc1ncc(CNC23CC4CC(CC(C4)C2)C3)cn1` [Example 75, 5-(Adamantan-1-ylaminomethyl)-pyrimidin-2-ylamine] was run?
**A.** 31 to 95%

**Q.** Which inhibition at 100 µM does the source give for `OCc1ccc(CNC23CC4CC(CC(C4)C2)C3)o1` [Example 77, [5-(Adamantan-1-ylaminomethyl)-furan-2-yl]methanol] here?
**A.** 0 to 30%

same assay, conditions: Table 3; 100 uM; Xenopus oocytes, pH 5.5, -20 mV; read-out: S31 OOcyte Inhibition at 100 uM (%)

**Q.** With `CN(C)c1ncc(CNC23CC4CC(CC(C4)C2)C3)cn1` [Example 59b, N-((2-dimethylaminopyrimidin-5-yl)methyl)adamantan-1-amine] as the molecule, how does the inhibition at 100 µM read?
**A.** 0 to 30%

**Q.** Which inhibition at 100 µM does the source give for `CCOC(=O)CN(C)c1ncc(CNC23CC4CC(CC(C4)C2)C3)cn1` [Example 60b, N-((2-methyl(ethylcarboxymethyl)aminopyrimidin-5-yl)methyl)adamantan-1-amine] here?
**A.** 0 to 30%

**Q.** For `c1nc(C2CCCCC2)ncc1CNC12CC3CC(CC(C3)C1)C2` [Example 61b, N-((2-cyclohexylpyrimidin-5-yl)methyl)adamantan-1-amine], which inhibition at 100 µM is on record?
**A.** 0 to 30%

**Q.** How did the inhibition at 100 µM turn out when `CCCSc1ncc(CNC23CC4CC(CC(C4)C2)C3)cn1` [Example 62b, N-((2-propylthiopyrimidin-5-yl)methyl)adamantan-1-amine] was run?
**A.** 0 to 30%

**Q.** How did the inhibition at 100 µM turn out when `Cc1cccc(-c2ncc(CNC34CC5CC(CC(C5)C3)C4)cn2)c1` [Example 63b, N-((2-mtolylpyrimidin-5-yl)methyl)adamantan-1-amine] was run?
**A.** 0 to 30%

**Q.** Which inhibition at 100 µM does the source give for `COc1ncc(CNC23CC4CC(CC(C4)C2)C3)c(OC)n1` [Example 64b, N-((2,4-dimethoxypyrimidin-5-yl)methyl)adamantan-1-amine] here?
**A.** 0 to 30%

**Q.** With `c1nc(CNC23CC4CC(CC(C4)C2)C3)sc1C1CC1` [Example 65b, Adamantan-1-yl-(5-cyclopropyl-thiazol-2-ylmethyl)-amine] as the molecule, how does the inhibition at 100 µM read?
**A.** 0 to 30%

**Q.** `CSc1ccccc1-c1ccc(CNC23CC4CC(CC(C4)C2)C3)cc1` [Example 66b, Adamantan-1-yl-(2′-methylsulfanyl-biphenyl-4-ylmethyl)-amine] was tested. Which inhibition at 100 µM did it give?
**A.** 0 to 30%

**Q.** How did the inhibition at 100 µM turn out when `CSc1ccccc1-c1ccc(CNC23CC4CC(CC(C4)C2)C3)nc1` [Example 67b, Adamantan-1-yl-[5-(2-methylsulfanyl-phenyl)-pyridin-2-ylmethyl]-amine] was run?
**A.** 31 to 95%

**Q.** For `Cc1csc(CNC23CC4CC(CC(C4)C2)C3)n1` [Example 68b, Adamantan-1-yl-(4-methyl-thiazol-2-ylmethyl)-amine], which inhibition at 100 µM is on record?
**A.** 31 to 95%

**Q.** Which inhibition at 100 µM does the source give for `COc1ccccc1-c1ccc(CNC23CC4CC(CC(C4)C2)C3)nc1` [Example 69b, Adamantan-1-yl-[5-(2-methoxy-phenyl)-pyridin-2-ylmethyl]-amine] here?
**A.** 0 to 30%

**Q.** How did the inhibition at 100 µM turn out when `Clc1ccc(CNC23CC4CC(CC(C4)C2)C3)nn1` [Example 70b, Adamantan-1-yl-(6-chloro-pyridazin-3-ylmethyl)-amine] was run?
**A.** 31 to 95%

**Q.** For `c1csc(-c2ccc(CNC34CC5CC(CC(C5)C3)C4)nn2)c1` [Example 71b, Adamantan-1-yl-(6-thiophen-2-yl-pyridazin-3-ylmethyl)-amine], which inhibition at 100 µM is on record?
**A.** 0 to 30%

**Q.** With `Clc1ccccc1-c1ccc(CNC23CC4CC(CC(C4)C2)C3)nc1` [Example 72b, Adamantan-1-yl-[5-(2-chloro-phenyl)-pyridin-2-ylmethyl]-amine] as the molecule, how does the inhibition at 100 µM read?
**A.** 0 to 30%

**Q.** Which inhibition at 100 µM does the source give for `C[Si](C)(C)c1ccc(CNC23CC4CC(CC(C4)C2)C3)s1` [Example 75b, Adamantan-1-yl-(5-trimethylsilanyl-thiophen-2-ylmethyl)-amine] here?
**A.** 0 to 30%

**Q.** Which inhibition at 100 µM does the source give for `CSc1ccccc1-c1cnc(CNC23CC4CC(CC(C4)C2)C3)s1` [Example 76b, Adamantan-1-yl-[5-(2-methylsulfanyl-phenyl)-thiazol-2-ylmethyl]-amine] here?
**A.** 0 to 30%
